The source of these data is paper PMC3763812 (Chemical research in toxicology, 2013).

Structures are written as SMILES. Entries after “also recorded” stand apart in the source; their conditions may differ.

The test system of series [1] is DNA. The conditions noted are these: in vivo and in vitro; cited from earlier work.
The conditions of series [2]: with exogenous activation; cited from earlier work.
Series [3] has as its system ds-DNA in DNA/RuPVP/1B1 films (cyt P450 1B1 supersomes). Put plainly: ECL genotoxicity array, DNA/RuPVP/1B1 films. It is filed as biochemical, human. The settings on record: 25 μM B[a]P or 50 μM B[ghi]P with NADPH.
For the next series, the system named is mouse skin. The settings on record: cited from earlier work.
Series [4] relates to DNA. The settings on record: activated by light without metabolic activation; cited from earlier work.
Series [5] relates to DNA in PDDA/supersomes/PDDA/DNA biocolloids (1A1 and 1B1 supersomes). It is filed as biochemical, human. The settings on record: 20-mins reaction of B[ghi]P with biocolloid enzyme/DNA reactors.
The subject of series [6] is ds-DNA with cyt P4501A1, 1B1 and 1A2 supersomes. The settings on record: electro-optical toxicity screening arrays.
For series [7], the system named is ds-DNA in DNA/RuPVP/1A2 films (cyt P450 1A2 supersomes). Kind of series: ECL genotoxicity array, DNA/RuPVP/1A2 films. It is filed as biochemical, human. The settings on record: 25 μM B[a]P or 50 μM B[ghi]P with NADPH.

Turning to `c1cc2ccc3ccc4ccc5cccc6c(c1)c2c3c4c56` [B[ghi]P, benzo[ghi]perylene], the “Binding of active metabolites to DNA” value in the series with DNA [1] is “active metabolites can bind to DNA”. Also, the “Mutagenicity in the Ames test” value in series [2] is reported as “displays mutagenicity”. In addition, the “Normalized ECL turnover rate (R)” value in series [3] was determined as 34.3 μg^−1•protein•min^−1•mM; in series [7], 23.3 μg^−1•protein•min^−1•mM. In addition, the Tumor initiation entry with mouse skin was “not found to initiate tumors; also recorded: negative”. The “DNA damage in Comet assays” value in the series on DNA [4] was “yielded DNA damage”. The “Detection of DNA adducts of B[ghi]P 3,4-oxide (mass transitions of Table 3)” value in series [5] is “no peaks were found”. Further, the “Lower rate of DNA damage by B[ghi]P metabolites than benzo[a]pyrene” value in series [6] is on record as 3 fold.
